Consider 9 molecules from US10899790B2, “Method for modifying T cell population” (OSAKA UNIVERSITY, priority 2016, dated 2021).

Molecules are shown by their SMILES.

For experiment [1], the target named is T1, Retinol Dehydrogenase 10 (RDH10) (Homo sapiens, UniProt Q8IZV5).
T1 construct: expressed in transfected cells; host or cells: 293T (microsomal fraction)
T1 sequence (Q8IZV5 1-341): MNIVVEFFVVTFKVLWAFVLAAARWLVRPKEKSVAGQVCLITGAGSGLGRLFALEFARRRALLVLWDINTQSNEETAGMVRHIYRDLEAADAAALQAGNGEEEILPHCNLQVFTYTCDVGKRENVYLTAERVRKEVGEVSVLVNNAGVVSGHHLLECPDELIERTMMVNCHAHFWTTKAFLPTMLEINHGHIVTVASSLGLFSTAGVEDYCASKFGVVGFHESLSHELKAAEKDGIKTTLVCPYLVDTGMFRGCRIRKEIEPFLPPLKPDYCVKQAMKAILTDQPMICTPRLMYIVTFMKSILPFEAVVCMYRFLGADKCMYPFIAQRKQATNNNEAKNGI
As to the kind of experiment: Inhibition of RDH10 enzyme activity (microsomal fraction of RDH10-expressed 293T, all-trans retinol to all-trans retinal, HPLC). The following applies: final concentration of 20 μM; relative to DMSO control (FIG. 1). Format: biochemical. As to the method: All-trans retinol, BSA, and NAD (nicotinamide adenine dinucleotide) as a coenzyme were added to a buffer for reaction (90 mM potassium phosphate buffer, pH7.4, 40 mM KCl) so as to have final concentrations of 10 μM, 10 μM, and 1 mM respectively. This mixture was taken in siliconized tubes by 200 μl for each, the microsomal fractions separated from 293T and RDH10-expressed 293T were added to separate tubes by 10 μl for each, and the mixtures were allowed to react at 37° C. for 15 minutes. After 200 μl of methanol was added to the reaction mixtures to stop the reaction, retinoid was extracted using hexane and concentrated. The concentrated retinoid was dissolved in 150 μl of acetonitrile, separated by HPLC, and subjected to the detection of ultraviolet light absorption at a wavelength of 350 nm, whereby the substrate (all-trans retinol) and the product (all-trans retinal) were detected. In addition, standard samples (all-trans retinol and all-trans retinal) were separated by HPLC and the retention times of the respective standard samples were determined in advance. The solvent for HPLC was acetonitrile: 50 mM ammonium acetate=75:25. As the separation column, Syhergi 4 μm Hydro-RP 80A (manufactured by Phenomenex) was used. In addition, the flow rate was 2.0 ml/min. The RDH10 enzyme activity was calculated by reading the amount of product per fixed time from the chart of HPLC.
All-trans retinol, BSA, and NAD (nicotinamide adenine dinucleotide) as a coenzyme were added to a buffer for reaction (90 mM potassium phosphate buffer, pH7.4, 40 mM KCl) so as to have final concentrations of 10 μM, 10 μM, and 1 mM respectively. This mixture was taken in siliconized tubes by 200 μl for each, the microsomal fraction separated from RDH10-expressed 293T was added to separate tubes by 10 μl for each. The RDH10 inhibitor dissolved in DMSO was added to each tube so as to have a final concentration of 20 μM, and the same amount of DMSO was added to the control tube. The mixture was allowed to react at 37° C. for 15 to 30 minutes, 200 μl of methanol was added to the reaction mixtures, and then retinoid was extracted using hexane and concentrated. The concentrated retinoid was dissolved in 150 μl of acetonitrile, separated by HPLC, and subjected to the detection of ultraviolet light absorption at a wavelength of 350 nm, whereby the substrate (all-trans retinol) and the product (all-trans retinal) were detected. In addition, standard samples (all-trans retinol and all-trans retinal) were separated by HPLC and the retention times of the respective standard samples were determined in advance. The solvent for HPLC was acetonitrile: 50 mM ammonium acetate=75:25. As the separation column, Syhergi 4 μm Hydro-RP 80A (manufactured by Phenomenex) was used. The flow rate was 2.0 ml/min.
The enzyme activity was determined by the waveform area of the product (all-trans retinal) with respective to the waveform area of the non-reacted substrate (all-trans retinol), and the relative value with respect to the enzyme activity in the control is illustrated in FIG. 1. The error bars indicate SD (standard deviation).

The test system of experiment [2] is Healthy human-derived CD4+CD45RO+T cells. Nature of the experiment: Effect in vitro: CD62L and CD127 expression in cultured T cells by flow cytometry. Format: cell-based. The conditions noted are these: 20 μM; anti-CD3, anti-CD28, IL-2; vs DMSO control (FIG. 2). On the procedure:
Healthy human-derived CD4^+CD45RO^+T cells (1×10^5) were cultured in the presence of anti-CD3 antibody (2 μg/ml), anti-CD28 antibody (2 μg/ml), IL-2 (20 IU/ml) and RDH10 inhibitors (Compound No. 16 (RDHI-032), Compound No. 17 (RDHI-033), and Compound No. 18 (RDHI-034)) (20 μM for each). In addition, DMSO was used as a control for the RDH10 inhibitor. After seven days […] resuspended in a fresh culture medium to which IL-2 was not added, and cultured for one more day. Thereafter, the expression of CD62L and CD127 in T cells was analyzed by flow cytometry. The culture solution used was X-VIVO15 to which AB serum was added to have a final concentration of 10%.

Take `CC1(C)C(N)CC[C@]2(C)[C@H]3C(=O)C=C4[C@@H]5C[C@@](C)(C(N)=O)CC[C@]5(C)CC[C@@]4(C)[C@]3(C)CC[C@@H]12` (stereo partly drawn) [Compound No. 16, (2S,4aS,6aS,6bR,8aR,12aS,12bR,14bR)-10-amino-2,4a,6a,6b,9,9,12a-heptamethyl-13-oxo-1,2,3,4,4a,5,6,6a,6b,7,8,8a,9,10,11,12,12a,12b,13,14b-icosahydropicene-2-carboxamide]: the “RDH10 enzyme activity inhibitory action” value in experiment [1] is recorded as “relatively potent”. Also, in experiment [2], the “amplification of memory T cells (CD62L+CD127+T cells)” value (“amplification of memory T cells” below) is on record as “amplified memory T cells” and the “effector T cells (CD62L−CD127−T cells)” value is given as “decreased”.
In the case of `COC(=O)[C@@]1(C)CC[C@]2(C)CC[C@]3(C)C(=CC(=O)[C@@H]4[C@@]5(C)CCC(NC(=O)N6CCOCC6)C(C)(C)[C@@H]5CC[C@]43C)[C@H]2C1` (stereo partly drawn) [Compound No. 22, (2S,4aS,6aS,6bR,8aR,12aS,12bR,14bS)-methyl 2,4a,6a,6b,9,9,12a-heptamethyl-10-(morpholine-4-carboxamido)-13-oxo-1,2,3,4,4a,5,6,6a,6b,7,8,8a,9,10,11,12,12a,12b,13,14b-icosahydropicene-2-carboxylate], the “RDH10 enzyme activity inhibitory action” value in experiment [1] is reported as “exhibited the RDH10 enzyme activity inhibitory action”. For the same molecule, the “amplification of memory T cells” value in experiment [2] was “tended to amplify memory cells”.
For the molecule `CC(=O)NC1CC[C@]2(C)[C@H]3C(=O)C=C4[C@@H]5C[C@@](C)(C(N)=O)CC[C@]5(C)CC[C@@]4(C)[C@]3(C)CC[C@H]2C1(C)C` (stereo partly drawn) [Compound No. 17, (2S,4aS,6aS,6bR,8aR,12aS,12bR,14bR)-10-acetamido-2,4a,6a,6b,9,9,12a-heptamethyl-13-oxo-1,2,3,4,4a,5,6,6a,6b,7,8,8a,9,10,11,12,12a,12b,13,14b-icosahydropicene-2-carboxamide], the “RDH10 enzyme activity inhibitory action” value in experiment [1] is given as “relatively potent”. Moreover, in experiment [2], the “amplification of memory T cells” value is “amplified memory T cells” and the “effector T cells (CD62L−CD127−T cells)” value is “decreased”.
Consider `COC(=O)[C@@]1(C)CC[C@]2(C)CC[C@]3(C)C(=CC(=O)[C@@H]4[C@@]5(C)CCC(NC(=O)/C=C\C(=O)O)C(C)(C)[C@@H]5CC[C@]43C)[C@H]2C1` (stereo partly drawn) [Compound No. 5, (Z)-4-((4aR,6aR,6bS,8aS,11S,12aS,14aR,14bS)-11-(methoxycarbonyl)-4,4,6a,6b,8a,11,14b-heptamethyl-14-oxo-1,2,3,4,4a,5,6,6a,6b,7,8,8a,9,10,11,12,12a,14,14a,14b-icosahydropicen-3-ylamino)-4-oxobut-2-enoic acid], for which the “RDH10 enzyme activity inhibitory action” value in experiment [1] is “relatively potent”. In addition, the “amplification of memory T cells” value in experiment [2] is “tended to amplify memory cells”.
Regarding `COC(=O)[C@@]1(C)CC[C@]2(C)CC[C@]3(C)C(=CC(=O)[C@@H]4[C@@]5(C)CCC(NC(=O)N[C@@H](Cc6ccccc6)C(=O)O)C(C)(C)[C@@H]5CC[C@]43C)[C@H]2C1` (stereo partly drawn) [Compound No. 14, (2S)-2-(3-((4aR,6aR,6bS,8aS,11S,12aS,14aR,14bS)-11-(methoxycarbonyl)-4,4,6a,6b,8a,11,14b-heptamethyl-14-oxo-1,2,3,4,4a,5,6,6a,6b,7,8,8a,9,10,11,12,12a,14,14a,14b-icosahydropicen-3-yl)ureido)-3-phenyl propanoic acid], in experiment [1], the “RDH10 enzyme activity inhibitory action” value is recorded as “relatively potent”.
Take `CC1(C)C(NC(=O)c2ccccc2)CC[C@]2(C)[C@H]3C(=O)C=C4[C@@H]5C[C@@](C)(C(N)=O)CC[C@]5(C)CC[C@@]4(C)[C@]3(C)CC[C@@H]12` (stereo partly drawn) [Compound No. 18, (2S,4aS,6aS,6bR,8aR,12aS,12bR,14bR)-10-benzamide-2,4a,6a,6b,9,9,12a-heptamethyl-13-oxo-1,2,3,4,4a,5,6,6a,6b,7,8,8a,9,10,11,12,12a,12b,13,14b-icosahydropicene-2-carboxamide]: the “RDH10 enzyme activity inhibitory action” value in experiment [1] is reported as “relatively potent”. In experiment [2], the “amplification of memory T cells” value was “amplified memory T cells” and the “effector T cells (CD62L−CD127−T cells)” value is recorded as “decreased”.
Regarding `COC(=O)c1ccccc1NC(=O)NC1CC[C@]2(C)[C@H]3C(=O)C=C4[C@H]5C[C@@](C)(C(=O)OC)CC[C@]5(C)CC[C@@]4(C)[C@]3(C)CC[C@H]2C1(C)C` (stereo partly drawn) [Compound No. 9, (2S,4aS,6aS,6bR,8aR,12aS,12bR,14bS)-methyl 10-(3-(2-(methoxycarbonyl)phenyl)ureido)-2,4a,6a,6b,9,9,12a-heptamethyl-13-oxo-1,2,3,4,4a,5,6,6a,6b,7,8,8a,9,10,11,12,12a,12b,13,14b-icosahydropicene-2-carboxylate], in experiment [1], the “RDH10 enzyme activity inhibitory action” value was “relatively potent”.
On the same count and under the same terms, next, `CCOC(=O)CNC(=O)NC1CC[C@]2(C)[C@H]3C(=O)C=C4[C@H]5C[C@@](C)(C(=O)OC)CC[C@]5(C)CC[C@@]4(C)[C@]3(C)CC[C@H]2C1(C)C` (stereo partly drawn) [Compound No. 10, (2S,4aS,6aS,6bR,8aR,12aS,12bR,14bS)-methyl 10-(3-(2-ethoxy-2-oxoethyl)ureido)-2,4a,6a,6b,9,9,12a-heptamethyl-13-oxo-1,2,3,4,4a,5,6,6a,6b,7,8,8a,9,10,11,12,12a,12b,13,14b-icosahydropicene-2-carboxylate]: “relatively potent”.
With `COC(=O)[C@@]1(C)CC[C@]2(C)CC[C@]3(C)C(=CC(=O)[C@@H]4[C@@]5(C)CCC(NC(=O)N6CCOCC6)C(C)(C)[C@@H]5CC[C@]43C)[C@@H]2C1` (stereo partly drawn) [Compound No. 23, (2S,4aS,6aS,6bR,8aR,12aS,12bR,14bR)-methyl 2,4a,6a,6b,9,9,12a-heptamethyl-10-(morpholine-4-carboxamido)-13-oxo-1,2,3,4,4a,5,6,6a,6b,7,8,8a,9,10,11,12,12a,12b,13,14b-icosahydropicene-2-carboxylate], the “RDH10 enzyme activity inhibitory action” value in experiment [1] is given as “exhibited the RDH10 enzyme activity inhibitory action”. Besides, the “amplification of memory T cells” value in experiment [2] was “tended to amplify memory cells”.
